Laboratory results: US20020148001A1, “Transgenic mice containing CRFR2 corticotropin-releasing factor receptor gene disruptions” (priority 2000, published 2002)
No end group written: not given here.

How the values were obtained:
[1] = system: wild-type control mice (+/+); assay: Metrazol dose test (seizure susceptibility), wild-type control mice; format: in vivo, mouse; settings: genotype +/+
Protocol: (§1) A metrazol administration test can be used to screen animals for varying susceptibilities to seizures or similar events. For example, a 5 mg/ml solution of metrazol can be infused through the tail vein of a mouse at a rate of, e.g., approximately 0.375 ml/min. The infusion will cause all mice to experience seizures, followed by death. Those mice that enter the seizure stage the soonest are believed to be more prone to seizures.
(§2) Phenotypic Analysis. The transgenic mice were analyzed for phenotypic changes.

[2] = system: homozygous mutant mice (CRFR2 −/−); assay: Metrazol dose test (seizure susceptibility), CRFR2 homozygous mutant mice; format: in vivo, mouse; settings: for Dose to Death / Dose to Extension (tonic extension) / Dose to T/C (tonic/clonic seizure) / Dose to Twitch: genotype −/−
Protocol: as §1, §2

CRF2 receptor = target: T1, CRF2 receptor (Homo sapiens, UniProt Q13324); settings: transfected cells expressing the CRF2 receptor; cited from earlier work
T1 sequence (Q13324 1-411): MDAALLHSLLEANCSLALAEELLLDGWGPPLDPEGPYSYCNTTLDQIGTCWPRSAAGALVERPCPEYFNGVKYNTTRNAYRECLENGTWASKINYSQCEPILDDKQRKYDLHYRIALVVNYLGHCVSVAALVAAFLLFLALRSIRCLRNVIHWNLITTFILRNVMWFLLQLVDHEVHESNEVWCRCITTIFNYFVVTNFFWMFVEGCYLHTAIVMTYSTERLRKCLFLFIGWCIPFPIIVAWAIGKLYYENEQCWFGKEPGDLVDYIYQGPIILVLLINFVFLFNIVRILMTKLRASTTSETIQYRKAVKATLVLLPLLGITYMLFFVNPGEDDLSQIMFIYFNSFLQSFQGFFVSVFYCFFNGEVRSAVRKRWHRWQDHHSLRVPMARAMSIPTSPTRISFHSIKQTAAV

CRHR2 −/− mice [3] = settings: intravenously injected, mutant mice; cited from earlier work
CRHR2 −/− mice [4] = settings: CRHR2 −/− mice following urocortin administration; recovered more rapidly than wildtype; cited from earlier work
CRHR2 −/− mice [5] = settings: systemic urocortin, CRHR2 −/− mice in contrast to wildtype; cited from earlier work

C1CCc2nnnn2CC1 [metrazol]
Dose to Death ([1]; F2N0): 136.65 mg/kg body weight | Dose to Extension (tonic extension) ([1]; F2N0): 113.63 mg/kg body weight | Dose to T/C (tonic/clonic seizure) ([1]; F2N0): 43.46 mg/kg body weight | Dose to Twitch ([1]; F2N0, tail vein infusion): 36.93 mg/kg body weight | Dose to Death ([1]; F2N1): 124.96 mg/kg body weight | Dose to Extension (tonic extension) ([1]; F2N1): 95.46 mg/kg body weight | Dose to T/C (tonic/clonic seizure) ([1]; F2N1): 34.36 mg/kg body weight | Dose to Twitch ([1]; F2N1): 23.71 mg/kg body weight | Dose to Death ([2]; F2N0): 127.39 mg/kg body weight | Dose to Extension (tonic extension) ([2]; F2N0): 98.20 mg/kg body weight | Dose to T/C (tonic/clonic seizure) ([2]; F2N0): 44.38 mg/kg body weight | Dose to Twitch ([2]; F2N0): 34.90 mg/kg body weight | Dose to Death ([2]; F2N1): 148.84 mg/kg body weight | Dose to Extension (tonic extension) ([2]; F2N1): 119.75 mg/kg body weight | Dose to T/C (tonic/clonic seizure) ([2]; F2N1): 37.93 mg/kg body weight | Dose to Twitch ([2]; F2N1): 24.18 mg/kg body weight | metrazol response threshold, dose to show stereotypical seizure responses ([2]; homozygotes compared to wild-types, particularly tonic extension and death): higher dose of metrazol than wild-types

corticotropin-releasing hormone [CRH]
intracellular cAMP (CRF2 receptor): increase

urocortin (DDPPLSIDLTFHLLRTLLELARTQSQRERAEQNRIIFDSV; ends and bridges not checked; UniProt P81615 81-120, looked up)
effect on mean arterial pressure (CRHR2 −/− mice [3]): no effect | feeding (CRHR2 −/− mice [4]): initially suppressed | enhanced cardiac performance or reduced blood pressure (CRHR2 −/− mice [5]): failed to show the enhanced cardiac performance or reduced blood pressure
